Reference: patent US9937161B2, “Combinatorial compositions and methods for treatment of melanoma” (THE GENERAL HOSPITAL CORPORATION, priority 2013, dated 2018)

What was measured:
UACC-257 cells = assay: Pigmentation of cell pellets; format: cell-based; settings: 72 h
Description: Equal number of cells was pelleted by centrifugation.

[1] = test system: BRAF mutant melanoma cell line UACC62; assay: Electron microscopy, mitochondrial number; format: cell-based; settings: 3 μM, 72 hrs
Description: Electron microscopy of UACC-62 melanoma cells treated with vehicle or PLX4720 (3 μM, 72 hrs) was performed at Massachusetts General Hospital's PMB Microscopy Core. Cells were fixed for 1 hr at room temp in 2.0% glutaraldehyde in 0.1 M sodium cacodylate buffer, pH 7.4 (Electron Microscopy Sciences, Hatfield, Pa.). Cells were rinsed in buffer, scraped and pelleted. The pellets were treated with 1.0% osmium tetroxide (EMS) in cacodylate buffer for 1 hr at room temp. They were rinsed and then resuspended in 2.0% agarose for ease of handling. Small pieces were dehydrated through a graded series of ethanol, then infiltrated with eponate resin (Ted Pella, Redding, Calif.) overnight at room temp. They were then embedded in resin overnight at 60° C. Thin sections were cut on a Leica UC6 ultramicrotome, collected onto formvar-carbon coated slot grids and post-stained with uranyl acetate and lead citrate. […] Images were collected with an AMT digital imaging system (Advanced Microscopy Techniques, Danvers, Mass.). Mitochondrial density was calculated by morphometrics by standard protocols.

[2] = test system: BRAF mutant (UACC-62) melanoma cell line; assay: MITOTRACKER Red flow cytometry; format: cell-based; settings: 1 μM, 72 h
Description: (§1) MITOTRACKER® Red, Green and MITOSOX™ were obtained from INVITROGEN™ using manufacturer's recommended protocols. Mean fluorescence was determined by FlowJo software and normalized to vehicle-treated cells.

[3] = test system: melanomas with BRAF mutations; assay: PGC1α mRNA by quantitative PCR; format: cell-based; settings: 1 μM, 24 h
[4] = test system: BRAF mutant colon cancer cell lines; assay: PGC1α mRNA by quantitative PCR; format: cell-based; settings: two BRAF mutant colon cancer cell lines; 1 μM, 24 h
[5] = test system: BRAF mutant colon cancer cell lines; assay: phospho-ERK Western blot; format: cell-based; settings: two BRAF mutant colon cancer cell lines; 1 μM, 24 h
Description: FIG. 2B are representative Western blots showing the ERK activity in melanoma or colon cancer cells treated with PLX4720 (1 μM) for 24 h.
(§2) Whole cell lysates were prepared in lysis buffer supplemented with protease and phosphatase inhibitors (Roche). Equal amounts of protein were resolved by electrophoresis on gradient gels (Bio-Rad).
(§3) Melanoma biopsies prior and during treatment were sectioned, embedded in paraffin and stained with the phospho-ERK1/2 antibody (Cell Signaling Technology). PLX4720 was used at 1 μM concentration in all assays, whereas control samples were treated with an equal volume of DMSO.

[6] = test system: BRAF mutant (UACC-62) melanoma cell line; assay: MITOSOX fluorescence assay; format: cell-based; settings: 1 μM, 72 h
Description: as §1

[7] = test system: BRAF mutant melanoma M14 cells; assay: PGC1β mRNA time course; format: cell-based; settings: over 24 hours
[8] = test system: melanoma cell line that does not contain the BRAF mutation; assay: phospho-ERK Western blot; format: cell-based; settings: melanoma cell line without BRAF mutation
Description: FIG. 1G are representative Western blots showing activated ERK activity in cells of FIG. 1f using phospho-ERK antibodies.
as §2, §3

[9] = test system: melanoma cell line that does not contain the BRAF mutation; assay: Lactate assay; format: cell-based; settings: melanoma cell line without BRAF mutation; 16 hours
Description: (§4) FIG. 1F are histograms showing the lactate levels in media conditioned from the indicated cell lines treated with PLX4720 or vehicle control for 16 hours.
(§5) Cell number was calculated using the CYQUANT® assay (INVITROGEN™) or crystal violet staining. Lactate measurements were done using the Lactate Assay (BioVision or SIGMA®) per manufacturer's protocols. Indicated cell lines were plated in complete media overnight. Media was changed to serum free-media to avoid interference with the assay for 16 h with either PLX4720 (3 μM) or PLX4032 (1 μM) or vehicle control prior to harvesting cells and measurement of lactate. Results were normalized to cell number. All assays were performed in logarithmically growing cells.

BRAF mutant melanomas [10] = assay: Lactate assay; format: cell-based; settings: all BRAF mutant melanomas evaluated; 16 hours
Description: as §4, §5

[11] = test system: BRAF wild-type (MeWo) melanoma cell line; assay: MITOTRACKER Green flow cytometry (mitochondrial density); format: cell-based; settings: 1 μM, 72 h
Description: as §1

[12] = test system: BRAF mutant (UACC-62 and UACC-257) melanoma cell lines; assay: as above; format: cell-based; settings: 1 μM, 72 h; two BRAF mutant melanomas
Description: as §1

BRAF wild-type melanoma = assay: PGC1α mRNA by quantitative PCR; format: cell-based; settings: 1 μM, 24 h
PGC1α promoter = PGC1α promoter luciferase assay; format: cell-based; settings: UACC-62 cells; 48 h; wild-type promoter
Description: The murine PGC1α promoter was obtained from ADDGENE. Mutant promoters were verified by sequencing. UACC-62 cells were transfected with each promoter construct, pRL-CMV Renilla control and a M-MITF overexpression vector. PLX4720 treatment was for 48 h. Results reported are averages of at least three independent experiments, normalized for transfection efficiency using Renilla luciferase.

BRAF mutant melanomas [13] = assay: Gene set enrichment analysis of melanoma cell lines treated with vemurafenib; format: cell-based; settings: PLX4032 treated melanoma cell lines (n = 6)
[14] = test system: BRAF(V600E) parental cells; assay: ATP assay in isogenic cells; format: cell-based, human; settings: 1 μM, 24 h
Description: FIG. 6G are histograms showing the ATP levels, normalized to cell number in BRAF(V600E)+vector and BRAF(V600E)+MITF treated with PLX4032 (1 μM) for 24 h. ***, p<0.001 compared to control cells.
Glucose uptake (relative to total cell numbers) was measured over 24 h as trace [^3H]-deoxyglucose uptake in cells growing in glucose-containing media followed by plate harvest and subsequent analysis on a PerkinElmer® Wallac 1450 Microbeta scintillation counter. Oxygen consumption was measured using XF Flux Analyzer (Seahorse Biosciences) using standard protocols. ATP measurements were conducted using ENLITEN® ATP assay (PROMEGA®) according to standard trichloroacetic acid (TCA) extraction protocols.

With CCCS(=O)(=O)Nc1ccc(F)c(C(=O)c2c[nH]c3ncc(Cl)cc23)c1F [PLX4720, N-[3-[(5-Chloro-1H-pyrrolo[2,3-b]pyridin-3-yl)carbonyl]-2,4-difluorophenyl]-1-propanesulfonamide] the pigmentation (UACC-257 cells) was “increased pigmentation”, the “number of mitochondria per cell” value [1] was “significant increase” and the “MITOTRACKER Red fluorescence (mitochondrial activity and mass)” value [2] was “induced”. The “PGC1α mRNA” value ([3]; M14 cells, control siRNA) was “strongly induced”, the “induction of PGC1α mRNA” value ([3]; UACC62 cells, control siRNA) was 3 fold and the “increase in PGC1α mRNA” value ([3]; all melanomas with BRAF mutations) was 3-14 fold. For the same compound, the PGC1α expression [4] was “no effect”, the ERK phosphorylation [5] was “suppression of ERK phosphorylation similar to that seen in melanomas” and the “production of mitochondrial oxidative stress (MITOSOX)” value [6] was “increased”. For the same compound, the “PGC1β mRNA” value [7] was “no change”, the ERK signaling [8] was “inability of PLX4720 to suppress ERK signaling” and the lactate levels [9] was “did not change”. The lactate levels (BRAF mutant melanomas [10]) was “reduced”, the “mitochondrial density (MITOTRACKER Green)” value [11] was “did not affect” and the “mitochondrial density (MITOTRACKER Green)” value [12] was “increased”. The “expression of PGC1α” value (BRAF wild-type melanoma) was “No change” and the “activity of PGC1α promoter upstream of luciferase” value (PGC1α promoter) was “induction of the wild-type promoter”.

In the case of CCCS(=O)(=O)Nc1ccc(F)c(C(=O)c2c[nH]c3ncc(-c4ccc(Cl)cc4)cc23)c1F [vemurafenib], the “ES, CANCERDRUGS_PROBCELL_UP” value (BRAF mutant melanomas [13]; gene set size 15) was −0.6598, the “NES, CANCERDRUGS_PROBCELL_UP” value (BRAF mutant melanomas [13]; gene set size 15) was −1.791 and the “ES, CAMPTOTHECIN_PROBCELL_UP” value (BRAF mutant melanomas [13]; gene set size 17) was −0.6506. For the same compound, the “NES, CAMPTOTHECIN_PROBCELL_UP” value (BRAF mutant melanomas [13]; gene set size 17) was −1.802, the “ES, ATP_SYNTHESIS” value (BRAF mutant melanomas [13]; gene set size 19) was −0.6141 and the “ES, FLAGELLAR_ASSEMBLY” value (BRAF mutant melanomas [13]; gene set size 19) was −0.6141. The “ES, TYPE_III_SECRETION_SYSTEM” value (BRAF mutant melanomas [13]; gene set size 19) was −0.6141, the “NES, ATP_SYNTHESIS” value (BRAF mutant melanomas [13]; gene set size 19) was −1.75 and the “NES, FLAGELLAR_ASSEMBLY” value (BRAF mutant melanomas [13]; gene set size 19) was −1.8. For the same compound, the “NES, TYPE_III_SECRETION_SYSTEM” value (BRAF mutant melanomas [13]; gene set size 19) was −1.739, the “ES, CITRATE_CYCLE_TCA_CYCLE” value (BRAF mutant melanomas [13]; gene set size 20) was −0.8827 and the “ES, PHOTOSYNTHESIS” value (BRAF mutant melanomas [13]; gene set size 20) was −0.6181. For the same compound, the “NES, CITRATE_CYCLE_TCA_CYCLE” value (BRAF mutant melanomas [13]; gene set size 20) was −2.017, the “NES, PHOTOSYNTHESIS” value (BRAF mutant melanomas [13]; gene set size 20) was −1.797 and the “ES, BRENTANI_TRANSPORT_OF_VESICLES” value (BRAF mutant melanomas [13]; gene set size 23) was −0.604. The “NES, BRENTANI_TRANSPORT_OF_VESICLES” value (BRAF mutant melanomas [13]; gene set size 23) was −1.772, the “ES, HSA00020_CITRATE_CYCLE” value (BRAF mutant melanomas [13]; gene set size 25) was −0.6303 and the “NES, HSA00020_CITRATE_CYCLE” value (BRAF mutant melanomas [13]; gene set size 25) was −1.94. For the same compound, the “ES, HSA00640_PROPANOATE_METABOLISM” value (BRAF mutant melanomas [13]; gene set size 29) was −0.5472, the “NES, HSA00640_PROPANOATE_METABOLISM” value (BRAF mutant melanomas [13]; gene set size 29) was −1.733 and the “ES, VALINE_LEUCINE_AND_ISOLEUCINE_DEGRADATION” value (BRAF mutant melanomas [13]; gene set size 35) was −0.5231. For the same compound, the “NES, VALINE_LEUCINE_AND_ISOLEUCINE_DEGRADATION” value (BRAF mutant melanomas [13]; gene set size 35) was −1.732, the “ES, HSA000280_VALINE_LEUCINE_AND_ISOLEUCINE_DEGRADATION” value (BRAF mutant melanomas [13]; gene set size 42) was −0.5627 and the “NES, HSA000280_VALINE_LEUCINE_AND_ISOLEUCINE_DEGRADATION” value (BRAF mutant melanomas [13]; gene set size 42) was −1.945. For the same compound, the “ES, OXIDATIVE_PHOSPHORYLATION” value (BRAF mutant melanomas [13]; gene set size 55) was −0.5114, the “NES, OXIDATIVE_PHOSPHORYLATION” value (BRAF mutant melanomas [13]; gene set size 55) was −1.891 and the “ES, HSA00190_OXIDATIVE_PHOSPHORYLATION” value (BRAF mutant melanomas [13]; gene set size 100) was −0.4531. For the same compound, the “NES, HSA00190_OXIDATIVE_PHOSPHORYLATION” value (BRAF mutant melanomas [13]; gene set size 100) was −1.845, the “ES, PENG_GLUTAMINE_UP” value (BRAF mutant melanomas [13]; gene set size 227) was −0.3896 and the “NES, PENG_GLUTAMINE_UP” value (BRAF mutant melanomas [13]; gene set size 227) was −1.777. For the same compound, the “drop in ATP” value [14] was 42%.
